Patent US9987211B2, “Sunless tanning compounds and compositions” (REGENTS OF THE UNIVERSITY OF MINNESOTA, priority 2013, dated 2018)

Test system: guinea pig skin
Test: Pigment changes with topical application on guinea pig skin (melanin stimulation)
Format: in vivo
Experimental: Compounds 10, 117 and 123 in a solution of 75% PG/25% DMSO at 300 μM and 600 μM were provided in light tight containers and stored at 4 degrees C. Solutions were brought to room temp and vortexed prior to each use. Female Guinea pigs were shaved with electric clippers and the remaining stubble removed with Nair. The dorsal area of each guinea pig was divided into 2-3 sections. Treatment with compounds/vehicle began immediately after Nair application. 25 μL of each solution was applied to the assigned treatment site twice daily for 5 days. Hair removal, monitoring and photography continued once weekly for 30 days. Photos were taken with a Nikon D80 Digital SLR camera and Miravex Antera Melanin sensing camera.

[1] = 0.025 mL of 600 μM applied on guinea pig skin twice daily for five consecutive days, by day 15

| Molecule | melanin stimulation relative to surrounding untreated skin [1] | melanin stimulation relative to surrounding untreated skin (0.025 mL of 300 μM applied on guinea pig skin twice daily for five consecutive days, by day 8) |
| --- | --- | --- |
| Cc1cn(CC(Cn2cc(C)c(=O)[nH]c2=O)C(=O)O)c(=O)[nH]c1=O [Compound 117] | marked melanin stimulation | – |
| C[C@@]12C(=O)NC(=O)N3CCCN4C(=O)NC(=O)[C@]1(C)[C@H]4[C@H]32 [Compound 10] | – | marked melanin stimulation |
| Thymidine dinucleotide 5′-phosphate [reference compound] | marked melanin stimulation | – |
